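Five compound concentrations were applied to cells in 96-well plates for 48 hours; endpoints were derived by simple linear interpolation of the resulting dose-response curve. GI50 = concentration required for 50% inhibition of growth. TGI: concentration producing complete growth inhibition.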
Columns and labels:
Test in all cases: NCI anticancer screen, dose series, 48 h
[1] = test system: 786-0 renal
[2] = test system: A498 renal
[3] = test system: A549 NSCLC
[4] = test system: ACHN renal
[5] = test system: BT-549 breast
[6] = test system: CAKI-1 renal
[7] = test system: CCRF-CEM leukemia
[8] = test system: COLO 205 colon
[9] = test system: DU-145 prostate
[10] = test system: HCC-2998 colon
[11] = test system: HCT-116 colon
[12] = test system: HCT-15 colon
[13] = test system: HL-60(TB) leukemia
[14] = test system: HOP-62 NSCLC
[15] = test system: HS 578T breast
[16] = test system: HT29 colon
[17] = test system: IGROV1 ovarian
[18] = test system: K-562 leukemia
[19] = test system: KM12 colon
[20] = test system: LOX IMVI melanoma
[21] = test system: M14 melanoma
[22] = test system: MALME-3M melanoma
[23] = test system: MCF7 breast
[24] = test system: MDA-MB-231 breast
[25] = test system: MDA-MB-435
[26] = test system: MDA-MB-468 breast
[27] = test system: MOLT-4 leukemia
[28] = test system: NCI-H226 lung
[29] = test system: NCI-H23 lung
[30] = test system: NCI-H460 lung
[31] = test system: NCI-H522 lung
[32] = test system: OVCAR-3 ovarian
[33] = test system: OVCAR-4 ovarian
[34] = test system: OVCAR-5 ovarian
[35] = test system: OVCAR-8 ovarian
[36] = test system: RPMI-8226 leukemia
[37] = test system: RXF 393 renal
[38] = test system: SF-268 CNS
[39] = test system: SF-295 CNS
[40] = test system: SF-539 CNS
[41] = test system: SK-MEL-2 melanoma
[42] = test system: SK-MEL-28 melanoma
[43] = test system: SK-MEL-5 melanoma
[44] = test system: SK-OV-3 ovarian
[45] = test system: SN12C renal
[46] = test system: SNB-19 CNS
[47] = test system: SNB-75 CNS
[48] = test system: SR leukemia
[49] = test system: SW-620 colon
[50] = test system: T-47D breast
[51] = test system: TK-10 renal
[52] = test system: UACC-257 melanoma
[53] = test system: UACC-62 melanoma
[54] = test system: UO-31 renal

## Cn1cc(-c2cc(N)n3nc(-c4c[nH]c5ccc(Br)cc45)cc3n2)c2cc(Br)cnc21
[1]
  GI50: 1640 nM
  TGI: 3130 nM
[2]
  GI50: 1550 nM
  TGI: 3420 nM
[3]
  GI50: 1840 nM
  TGI: 3870 nM
[4]
  GI50: 1660 nM
  TGI: 3120 nM
[5]
  GI50: 2190 nM
  TGI: 4360 nM
[6]
  GI50: 1490 nM
  TGI: 3770 nM
[7]
  GI50: 1610 nM
  TGI: 4260 nM
[8]
  GI50: 1820 nM
  TGI: 3360 nM
[9]
  GI50: 1820 nM
  TGI: 3530 nM
[10]
  GI50: 1760 nM
  TGI: 3240 nM
[11]
  GI50: 1910 nM
  TGI: 4250 nM
[12]
  GI50: 1690 nM
  TGI: 3800 nM
[13]
  GI50: 1790 nM
  TGI: 4330 nM
[14]
  GI50: 1680 nM
  TGI: 3340 nM
[15]
  GI50: 2290 nM
  TGI: 5360 nM
[16]
  GI50: 1970 nM
  TGI: 3840 nM
[17]
  GI50: 1960 nM
  TGI: 4110 nM
[18]
  GI50: 1890 nM
  TGI: 5880 nM
[19]
  GI50: 1590 nM
  TGI: 3160 nM
[20]
  GI50: 1700 nM
  TGI: 3290 nM
[21]
  GI50: 1690 nM
  TGI: 3550 nM
[22]
  GI50: 1890 nM
  TGI: 3520 nM
[23]
  GI50: 1800 nM
  TGI: 3630 nM
[24]
  GI50: 1780 nM
  TGI: 3540 nM
[25]
  GI50: 1710 nM
  TGI: 3210 nM
[26]
  GI50: 1360 nM
  TGI: 2770 nM
[27]
  GI50: 2110 nM
  TGI: 10600 nM
[28]
  GI50: 2510 nM
  TGI: 7340 nM
[29]
  GI50: 1760 nM
  TGI: 3600 nM
[30]
  GI50: 1960 nM
  TGI: 4030 nM
[31]
  GI50: 1700 nM
  TGI: 3560 nM
[32]
  GI50: 1670 nM
  TGI: 3130 nM
[33]
  GI50: 1950 nM
  TGI: 3930 nM
[34]
  GI50: 2030 nM
  TGI: 4440 nM
[35]
  GI50: 2010 nM
  TGI: 4220 nM
[36]
  GI50: 2230 nM
  TGI: 7800 nM
[37]
  GI50: 1890 nM
  TGI: 3690 nM
[38]
  GI50: 2250 nM
  TGI: 5710 nM
[39]
  GI50: 1880 nM
  TGI: 4290 nM
[40]
  GI50: 1640 nM
  TGI: 3160 nM
[41]
  GI50: 1790 nM
  TGI: 3740 nM
[42]
  GI50: 1820 nM
  TGI: 3640 nM
[43]
  GI50: 2080 nM
  TGI: 4490 nM
[44]
  GI50: 2540 nM
  TGI: 7270 nM
[45]
  GI50: 1720 nM
  TGI: 3360 nM
[46]
  GI50: 2150 nM
  TGI: 4760 nM
[47]
  GI50: 1460 nM
  TGI: 3240 nM
[48]
  GI50: 1930 nM
  TGI: 5870 nM
[49]
  GI50: 1880 nM
  TGI: 3740 nM
[50]
  GI50: 1800 nM
  TGI: 4330 nM
[51]
  GI50: 1780 nM
  TGI: 3990 nM
[52]
  GI50: 2000 nM
  TGI: 4310 nM
[53]
  GI50: 1600 nM
  TGI: 3070 nM
[54]
  GI50: 1620 nM
  TGI: 3360 nM

Source: PubChem BioAssay (NCI)
